Laboratory results reported in article PMC4114247 (Cancer research, 2009).
“Also recorded” adds a separate entry of the source.

Tests used:
[1] = system: PC3 cells (PSMA negative); experiment: Direct binding to PC3 cells; details: 3 nM radioligand, 1 hour; PC3 cells lack PSMA
[2] = Stability in liver microsomes; type: in vitro ADME; details: data not shown
PC3 PIP (PSMA +) tumors = details: mouse, in vivo
LNCaP cells = experiment: Internalization into LNCaP cells; type: cell-based, human; details: 100 nM, 0–2 hours
[3] = system: mice bearing LNCaP xenografts; experiment: SPECT/CT imaging, LNCaP xenografts; type: in vivo, mouse; details: 4 hr after injection
[4] = system: NCr nude mice bearing LNCaP xenografts; experiment: Mouse tissue distribution, LNCaP xenografts; type: in vivo; details: for Ratio Tumor:Blood / Ratio Tumor:Skeletal Muscle: ratio based on the %ID/g
[5] = Stability in blood plasma; type: in vitro ADME; details: data not shown
[6] = system: NCr-nu/nu mice bearing PC3 xenografts; experiment: Mouse tissue distribution, PC3 xenografts; type: in vivo; details: PSMA deficient PC3 xenografts
[7] = molecular target: LNCaP cells (PSMA positive) (Homo sapiens, UniProt Q04609); experiment: Direct binding to LNCaP cells
Chain of LNCaP cells (PSMA positive) (Q04609 whole entry): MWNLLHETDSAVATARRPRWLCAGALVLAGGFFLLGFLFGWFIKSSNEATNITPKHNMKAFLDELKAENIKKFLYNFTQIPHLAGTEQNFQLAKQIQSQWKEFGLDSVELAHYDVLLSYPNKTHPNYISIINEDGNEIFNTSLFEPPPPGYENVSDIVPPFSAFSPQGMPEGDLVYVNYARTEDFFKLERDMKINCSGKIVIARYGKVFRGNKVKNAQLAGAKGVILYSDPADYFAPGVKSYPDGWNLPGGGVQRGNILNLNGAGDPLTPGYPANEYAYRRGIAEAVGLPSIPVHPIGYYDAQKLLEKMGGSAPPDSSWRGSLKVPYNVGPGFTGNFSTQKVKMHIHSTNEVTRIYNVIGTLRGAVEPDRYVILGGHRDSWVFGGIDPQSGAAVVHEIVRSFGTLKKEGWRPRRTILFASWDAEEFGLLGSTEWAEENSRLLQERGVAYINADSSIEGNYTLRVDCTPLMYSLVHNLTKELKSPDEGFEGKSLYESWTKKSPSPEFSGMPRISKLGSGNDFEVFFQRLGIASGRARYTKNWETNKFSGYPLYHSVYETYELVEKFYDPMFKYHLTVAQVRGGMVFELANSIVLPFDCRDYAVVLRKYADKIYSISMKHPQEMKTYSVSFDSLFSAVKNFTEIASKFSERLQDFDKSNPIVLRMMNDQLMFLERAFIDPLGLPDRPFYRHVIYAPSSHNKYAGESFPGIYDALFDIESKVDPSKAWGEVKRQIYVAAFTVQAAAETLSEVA

[8] = molecular target: NAALADase activity of PSMA (Homo sapiens, UniProt Q04609); experiment: NAALADase inhibition in LNCaP cell lysates; type: biochemical
Chain of NAALADase activity of PSMA (Q04609 whole entry): as above

[9] = molecular target: PSMA on human prostate cancer LNCaP cells (Homo sapiens, UniProt Q04609); experiment: Saturation binding analysis on LNCaP cells
Chain of PSMA on human prostate cancer LNCaP cells (Q04609 whole entry): as above

[10] = co-injected with 50 mg/kg PMPA, 2 hours

SMILES: O=C(O)CC[C@H](NC(=O)N[C@@H](CCCCNCc1ccc(I)cc1)C(=O)O)C(=O)O [[^123I]MIP-1072, (S)-2-(3-((S)-1-carboxy-5-(4–iodobenzylamino)pentyl)ureido)pentanedioic acid]
- Binding to PC3 cells [1]: no binding; also recorded: not to the PSMA deficient PC3 cells
- Stability in liver microsomes [2]: stable
- SPECT/CT detection of PC3 PIP (PSMA +) tumors (PC3 PIP (PSMA +) tumors): detected
- Internalization into LNCaP cells (LNCaP cells; 4 °C): but not at 4 °C
- Internalization into LNCaP cells (LNCaP cells; 37 °C): internalized; also recorded: time dependent increase in radioactivity associated with the cellular pellet
- SPECT/CT uptake in kidney and LNCaP tumor [3]: high uptake
- Tissue distribution: Adipose ([4]; 0.25 hr after injection): 1.45 ± 0.27 %ID/g
- Tissue distribution: Blood ([4]; 0.25 hr after injection): 2.59 ± 0.24 %ID/g
- Tissue distribution: Bone ([4]; 0.25 hr after injection): 0.69 ± 0.15 %ID/g
- Tissue distribution: Brain ([4]; 0.25 hr after injection): 0.08 ± 0.02 %ID/g
- Tissue distribution: Heart ([4]; 0.25 hr after injection): 1.25 ± 0.22 %ID/g
- Tissue distribution: Kidneys ([4]; 0.25 hr after injection): 90.1 ± 20.2 %ID/g
- Tissue distribution: Lg Intestine ([4]; 0.25 hr after injection): 0.41 ± 0.08 %ID/g
- Tissue distribution: Liver ([4]; 0.25 hr after injection): 2.26 ± 0.56 %ID/g
- Tissue distribution: Lungs ([4]; 0.25 hr after injection): 2.34 ± 0.61 %ID/g
- Tissue distribution: Sk.Muscle ([4]; 0.25 hr after injection): 0.8 ± 0.18 %ID/g
- Tissue distribution: Sm Intestine ([4]; 0.25 hr after injection): 0.83 ± 0.1 %ID/g
- Tissue distribution: Spleen ([4]; 0.25 hr after injection): 4.28 ± 1.67 %ID/g
- Tissue distribution: Stomach ([4]; 0.25 hr after injection): 0.69 ± 0.17 %ID/g
- Tissue distribution: Testes ([4]; 0.25 hr after injection): 0.91 ± 0.24 %ID/g
- Tissue distribution: Tumor (LNCaP xenograft) ([4]; 0.25 hr after injection): 12.9 ± 3.3 %ID/g
- Ratio Tumor:Blood ([4]; 0.25 hr): 4.97
- Ratio Tumor:Skeletal Muscle ([4]; 0.25 hr): 16.2
- Tissue distribution: Adipose ([4]; 1 hr after injection): 0.74 ± 0.28 %ID/g
- Tissue distribution: Blood ([4]; 1 hr after injection): 0.47 ± 0.15 %ID/g
- Tissue distribution: Bone ([4]; 1 hr after injection): 0.25 ± 0.07 %ID/g
- Tissue distribution: Brain ([4]; 1 hr after injection): 0.04 ± 0.01 %ID/g
- Tissue distribution: Heart ([4]; 1 hr after injection): 0.31 ± 0.08 %ID/g
- Tissue distribution: Kidneys ([4]; 1 hr after injection): 151 ± 26 %ID/g
- Tissue distribution: Lg Intestine ([4]; 1 hr after injection): 0.15 ± 0.04 %ID/g
- Tissue distribution: Liver ([4]; 1 hr after injection): 2.22 ± 0.43 %ID/g
- Tissue distribution: Lungs ([4]; 1 hr after injection): 0.86 ± 0.24 %ID/g
- Tissue distribution: Sk.Muscle ([4]; 1 hr after injection): 0.35 ± 0.17 %ID/g
- Tissue distribution: Sm Intestine ([4]; 1 hr after injection): 0.41 ± 0.12 %ID/g
- Tissue distribution: Spleen ([4]; 1 hr after injection): 1.91 ± 0.85 %ID/g
- Tissue distribution: Stomach ([4]; 1 hr after injection): 0.26 ± 0.03 %ID/g
- Tissue distribution: Testes ([4]; 1 hr after injection): 0.58 ± 0.19 %ID/g
- Tissue distribution: Tumor (LNCaP xenograft) ([4]; 1 hr after injection): 17.4 ± 6.3 %ID/g
- Ratio Tumor:Blood ([4]; 1 hr): 37.1
- Ratio Tumor:Skeletal Muscle ([4]; 1 hr): 50.0
- Tissue distribution: Adipose ([4]; 2 hr after injection): 0.46 ± 0.27 %ID/g
- Tissue distribution: Blood ([4]; 2 hr after injection): 0.21 ± 0.04 %ID/g
- Tissue distribution: Bone ([4]; 2 hr after injection): 0.17 ± 0.08 %ID/g
- Tissue distribution: Brain ([4]; 2 hr after injection): 0.04 ± 0.01 %ID/g
- Tissue distribution: Heart ([4]; 2 hr after injection): 0.19 ± 0.07 %ID/g
- Tissue distribution: Kidneys ([4]; 2 hr after injection): 159 ± 46 %ID/g
- Tissue distribution: Lg Intestine ([4]; 2 hr after injection): 0.28 ± 0.12 %ID/g
- Tissue distribution: Liver ([4]; 2 hr after injection): 2.84 ± 0.63 %ID/g
- Tissue distribution: Lungs ([4]; 2 hr after injection): 0.4 ± 0.19 %ID/g
- Tissue distribution: Sk.Muscle ([4]; 2 hr after injection): 0.2 ± 0.1 %ID/g
- Tissue distribution: Sm Intestine ([4]; 2 hr after injection): 0.35 ± 0.1 %ID/g
- Tissue distribution: Spleen ([4]; 2 hr after injection): 0.75 ± 0.36 %ID/g
- Tissue distribution: Stomach ([4]; 2 hr after injection): 0.21 ± 0.06 %ID/g
- Tissue distribution: Testes ([4]; 2 hr after injection): 0.43 ± 0.16 %ID/g
- Tissue distribution: Tumor (LNCaP xenograft) ([4]; 2 hr after injection): 14.0 ± 6.9 %ID/g
- Ratio Tumor:Blood ([4]; 2 hr): 65.4
- Ratio Tumor:Skeletal Muscle ([4]; 2 hr): 70.2
- Tissue distribution: Adipose ([4]; 4 hr after injection): 0.12 ± 0.16 %ID/g
- Tissue distribution: Bone ([4]; 4 hr after injection): 0.1 ± 0.18 %ID/g
- Tissue distribution: Heart ([4]; 4 hr after injection): 0.01 ± 0.02 %ID/g
- Tissue distribution: Kidneys ([4]; 4 hr after injection): 35.8 ± 18.7 %ID/g
- Tissue distribution: Lg Intestine ([4]; 4 hr after injection): 0.48 ± 0.13 %ID/g
- Tissue distribution: Liver ([4]; 4 hr after injection): 2.17 ± 0.67 %ID/g
- Tissue distribution: Lungs ([4]; 4 hr after injection): 0.08 ± 0.04 %ID/g
- Tissue distribution: Sk.Muscle ([4]; 4 hr after injection): 0.08 ± 0.1 %ID/g
- Tissue distribution: Sm Intestine ([4]; 4 hr after injection): 0.24 ± 0.07 %ID/g
- Tissue distribution: Spleen ([4]; 4 hr after injection): 0.16 ± 0.12 %ID/g
- Tissue distribution: Stomach ([4]; 4 hr after injection): 0.11 ± 0.05 %ID/g
- Tissue distribution: Testes ([4]; 4 hr after injection): 0.26 ± 0.17 %ID/g
- Tissue distribution: Tumor (LNCaP xenograft) ([4]; 4 hr after injection): 13.7 ± 3.1 %ID/g
- Ratio Tumor:Blood ([4]; 4 hr): 220
- Ratio Tumor:Skeletal Muscle ([4]; 4 hr): 182
- Tissue distribution: Adipose ([4]; 8 hr after injection): 0.04 ± 0.11 %ID/g
- Tissue distribution: Blood ([4]; 8 hr after injection): 0.06 ± 0.03 %ID/g
- Tissue distribution: Bone ([4]; 8 hr after injection): 0.04 ± 0.04 %ID/g
- Tissue distribution: Brain ([4]; 8 hr after injection): 0.02 ± 0.01 %ID/g
- Tissue distribution: Heart ([4]; 8 hr after injection): 0.05 ± 0.04 %ID/g
- Tissue distribution: Kidneys ([4]; 8 hr after injection): 21.5 ± 25.5 %ID/g
- Tissue distribution: Lg Intestine ([4]; 8 hr after injection): 0.72 ± 0.22 %ID/g
- Tissue distribution: Liver ([4]; 8 hr after injection): 1.78 ± 0.4 %ID/g
- Tissue distribution: Lungs ([4]; 8 hr after injection): 0.06 ± 0.03 %ID/g
- Tissue distribution: Sk.Muscle ([4]; 8 hr after injection): 0.02 ± 0.04 %ID/g
- Tissue distribution: Sm Intestine ([4]; 8 hr after injection): 0.27 ± 0.06 %ID/g
- Tissue distribution: Spleen ([4]; 8 hr after injection): 0.18 ± 0.11 %ID/g
- Tissue distribution: Stomach ([4]; 8 hr after injection): 0.21 ± 0.08 %ID/g
- Tissue distribution: Testes ([4]; 8 hr after injection): 0.18 ± 0.14 %ID/g
- Tissue distribution: Tumor (LNCaP xenograft) ([4]; 8 hr after injection): 9.74 ± 3.48 %ID/g
- Ratio Tumor:Blood ([4]; 8 hr): 176
- Ratio Tumor:Skeletal Muscle ([4]; 8 hr): 446
- Tissue distribution: Adipose ([4]; 24 hr after injection): 0.01 ± 0.11 %ID/g
- Tissue distribution: Blood ([4]; 24 hr after injection): 0.01 ± 0 %ID/g
- Tissue distribution: Bone ([4]; 24 hr after injection): 0.03 ± 0.05 %ID/g
- Tissue distribution: Brain ([4]; 24 hr after injection): 0.02 ± 0.01 %ID/g
- Tissue distribution: Heart ([4]; 24 hr after injection): 0.01 ± 0.05 %ID/g
- Tissue distribution: Kidneys ([4]; 24 hr after injection): 1.1 ± 0.6 %ID/g
- Tissue distribution: Lg Intestine ([4]; 24 hr after injection): 0.37 ± 0.18 %ID/g
- Tissue distribution: Liver ([4]; 24 hr after injection): 0.29 ± 0.05 %ID/g
- Tissue distribution: Lungs ([4]; 24 hr after injection): 0.05 ± 0.06 %ID/g
- Tissue distribution: Sk.Muscle ([4]; 24 hr after injection): 0.08 ± 0.04 %ID/g
- Tissue distribution: Sm Intestine ([4]; 24 hr after injection): 0.07 ± 0.02 %ID/g
- Tissue distribution: Spleen ([4]; 24 hr after injection): 0.14 ± 0.1 %ID/g
- Tissue distribution: Stomach ([4]; 24 hr after injection): 0.11 ± 0.05 %ID/g
- Tissue distribution: Testes ([4]; 24 hr after injection): 0.05 ± 0.04 %ID/g
- Tissue distribution: Tumor (LNCaP xenograft) ([4]; 24 hr after injection): 5.03 ± 1.35 %ID/g
- Ratio Tumor:Blood ([4]; 24 hr): 411
- Ratio Tumor:Skeletal Muscle ([4]; 24 hr): 64.5
- tumor:blood ratio ([4]; after only a few hours): > 100
- tumor:skeletal muscle ratio ([4]; after only a few hours): > 100
- Thyroid content (deiodination) ([4]; all time points): < 1 % of the total injected dose
- Binding to LNCaP tumor xenografts with co-injected PMPA [4, 10]: blocked
- Binding to kidneys with co-injected PMPA [4, 10]: blocked
- Blood-brain barrier crossing ([4]; from little uptake in the brain): do not cross the blood-brain barrier
- Route of clearance ([4]; mouse, in vivo): primarily through urinary excretion
- Stability in blood plasma [5]: stable
- Localization to PC3 tumors [6]: not to the PSMA deficient PC3 tumors
- Binding to LNCaP cells in the presence of non-radiolabeled compound or PMPA ([7]; 3 nM radioligand with 10 µM non-radiolabeled compound or 10 µM PMPA): abolished; also recorded: inhibited
- Binding to LNCaP cells ([7]; 3 nM radioligand, 1 hour, room temperature): bound

SMILES: O=C(O)CC[C@H](NC(=O)N[C@@H](CCCCNCc1ccc(I)cc1)C(=O)O)C(=O)O [MIP-1072, (S)-2-(3-((S)-1-carboxy-5-(4–iodobenzylamino)pentyl)ureido)pentanedioic acid]
- Ki [8]: 4.6 ± 1.6 nM
- Kd [9]: 3.8 ± 1.3 nM

SMILES: O=C(O)CC[C@H](NC(=O)N[C@@H](CCCCNC(=O)Nc1ccc(I)cc1)C(=O)O)C(=O)O [MIP-1095, (S)-2-(3-((S)-1-carboxy-5-(3-(4-iodophenyl)ureido)pentyl)ureido)pentanedioic acid]
- Kd [9]: 0.81 ± 0.39 nM
- Greater affinity of MIP-1095 over MIP-1072 ([9]; saturation binding and NAALADase inhibition studies): approximately 5 fold
